Test results published in ChEMBL document CHEMBL1151498, “Synthesis and biological evaluation of 23-oxa-, 23-thia- and 23-oxa-24-oxo-1,25-dihydroxyvitamin D3” (1993).

Columns and labels:
[1] = target: T1, Vitamin D3 receptor (Homo sapiens) (UniProt P11473); assay: Compound was tested to assess the relative affinity for the intestinal mucosal vitaminD receptor
T1 sequence (whole entry): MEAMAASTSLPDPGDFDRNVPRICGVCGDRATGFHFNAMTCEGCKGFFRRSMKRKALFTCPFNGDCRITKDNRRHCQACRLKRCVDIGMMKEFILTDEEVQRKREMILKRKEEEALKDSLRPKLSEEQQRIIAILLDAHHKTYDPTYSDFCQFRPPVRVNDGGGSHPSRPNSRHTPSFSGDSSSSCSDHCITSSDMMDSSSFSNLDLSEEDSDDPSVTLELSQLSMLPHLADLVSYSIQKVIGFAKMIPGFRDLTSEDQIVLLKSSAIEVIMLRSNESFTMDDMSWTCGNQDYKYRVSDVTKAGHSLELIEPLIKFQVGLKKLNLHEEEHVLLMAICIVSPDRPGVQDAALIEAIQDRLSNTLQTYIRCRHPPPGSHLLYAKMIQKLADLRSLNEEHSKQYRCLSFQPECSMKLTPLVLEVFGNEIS

[2] = test system: HL-60; assay: Compound was tested to induce differentiation of human promyeloid leukemia cells (HL-60); assay type: functional
[3] = test system: HL-60; assay: Ability to induce differentiation of human promyeloid leukemia cells (HL-60); assay type: functional

## C=C1/C(=C\C=C2/CCC[C@]3(C)[C@@H]([C@H](C)COC(=O)C(C)(C)O)CC[C@@H]23)C[C@@H](O)C[C@@H]1O
[1]
  Relative affinity: 26
[2]
  Relative activity: 6

## C=C1/C(=C\C=C2/CCC[C@]3(C)[C@@H]([C@H](C)COCC(C)(C)O)CC[C@@H]23)C[C@@H](O)C[C@@H]1O
[3]
  Relative activity: 9
[1]
  Relative affinity: 2

## C=C1/C(=C\C=C2/CCC[C@]3(C)[C@@H]([C@H](C)CSCC(C)(C)O)CC[C@@H]23)C[C@@H](O)C[C@@H]1O
[1]
  Relative affinity: 13
[2]
  Relative activity: 29
